What was measured:
[1] = test system: Hyphantria cunea (larvae); experiment: Topical application study, Hyphantria cunea larvae; assay type: in vivo; details: 5000 μg/g, approx. 100 mg, w/in 24 hr
Excerpt: (§1) Preliminary tests with topical applications of Compound 13 have been conducted on a number of insect species representing 5 different orders. Since the same amount of compound was used, regardless of body size, the smaller species received a larger dose/body mass. More extensive work will be required to establish LD50 values. […]

[2] = test system: tobacco hornworm larvae (newly ecdysed fifth-instar); experiment: Topical application to tobacco hornworm larvae; assay type: in vivo, Manduca sexta
Experimental: The test compounds were dissolved either in acetone or hexane and applied to the integument of the test insect with a micro applicator. Newly ecdysed fifth-instar tobacco hornworm larvae weighing between 1-1.5 g were used and toxicity data were obtained in the same way as previously described.

[3] = test system: Malacosoma americanum (larvae); experiment: Topical application study, Malacosoma americanum larvae; assay type: in vivo; details: 1000 μg/g, approx. 500 mg, w/in 24 hr
Excerpt: as §1

H. virescens = experiment: Incorporation into H. virescens diet; assay type: in vivo, Heliothis virescens; details: as much as 20 mM in diet
Experimental: Compounds 1, 10, 11, 13 and 14 were incorporated into H. virescens diet in the same manner as M. Sexta. Diets containing as much as 20 mM of each compound had little effect on larval development time, pupal weight or time to adult emergence.

[4] = test system: Popillia japonica (larvae); experiment: Topical application study, Popillia japonica larvae; assay type: in vivo; details: 500 μg/g, approx. 250 mg, w/in 24 hr
Excerpt: as §1

Musca domestica (Adult) = experiment: Topical application study, Musca domestica adult; assay type: in vivo; details: 25,000 μg/g
Excerpt: as §1

[5] = test system: Periplaneta americana (adult); experiment: Topical application study, Periplaneta americana adult; assay type: in vivo; details: 666 μg/g, approx. 750 mg, w/in 24 hr
Excerpt: as §1

Musca autumnalis (Adult) = experiment: Topical application study, Musca autumnalis adult; assay type: in vivo; details: 25,000 μg/g
Excerpt: as §1

[6] = test system: Ostrinia nubilalis (larvae); experiment: Topical application study, Ostrinia nubilalis larvae; assay type: in vivo; details: 6250 μg/g, approx. 80 mg; nearing pupation size at time of treatment
Excerpt: as §1

H. virescens larvae = experiment: Topical application to H. virescens larvae; assay type: in vivo, Heliothis virescens; details: for larvae killed: within 48 hr
[7] = test system: Podisus maculiventris (nymphs & adults); experiment: Topical application study, Podisus maculiventris nymphs & adults; assay type: in vivo; details: 10,000 μg/g
Excerpt: as §1

[8] = test system: Blattella germanica (adult); experiment: Topical application study, Blattella germanica adult; assay type: in vivo; details: 7150 μg/g, approx. 70 mg, w/in 24 hr
Excerpt: as §1

[9] = test system: tobacco hornworm (Manduca sexta) larvae; experiment: Tobacco hornworm growth and developmental responses to feeding on diets containing the compounds; assay type: in vivo
Experimental: The compounds produced and described in Example 1 were then tested for pesticidal activity against the tobacco hornworm (Manduca sexta). The screening procedure for these tests began with the larval stage and continued through the pupal and adult stages and finally evaluated egg production. The studies thus permitted the evaluation of the effects of the compounds over several subsequent developmental stages in the total life cycle of the insect, giving estimates of acute toxicity (insecticidalor larvicidal activity) as well as prolonged or delayed effects on development (growth regulation) and reproduction (chemosterilization). The latter are of special importance in conjunction with the integrated pest management approach to insect control.
The test compounds were incorporated into the artificial diet of tobacco hornworm larvae and their subsequent growth and developmental responses were monitored using the following parameters: larval mortality including determination of LD50 values, rate of larval development and weight gain, percent pupation, pupal weight and degree of deformities, percent adult emergence and measures of reproductive capacity such as the number of developed ooctyes, fecundity and fertility. The protocol for the screening tests has been developed over a number of years by Dahlman et al., Comp. Biochem. Physiol. 51A, 33, (1975); Comp. Biochem. Physiol., 52A, 105 (1975); Ent. Exp. et Appl., 22, 123 (1977); Palumbo and D. L. Dahlman, J. Econ. Entomol. 71, 674 (1978); D. L. Dahlman, Ent. Exp. et Appl., 24, 327 (1978).
Each treatment used 15 newly ecdysed fifth-instar larvae. Death of larvae within a few hours to several days of initial exposure was considered to be acute toxicity. However, the compounds may reduce the maximum size attained by larvae and/or may retard growth so that larvae require additional time to attain their maximum size. Developmental parameters subsequent to the feeding stage also may be affected. […] Mortality may occur in the pupal stage or emerging adults may have wrinkled wings or other deformities. The number of eggs produced by treated females may be reduced and/or unfertile. Although acute toxicity is desirable in the control of any insect, the delayed effects which result in poor survival and reduced reproductive capacity are significant factors in the long-range program of pest management systems.
Continuous cultures of M. sexta are maintained according to the procedures of Yamamoto, J. Econ. Entomol., 62, p. 1427 (1969). Ingredients of the diet formulation include sugar, casein, wheat germ oil, cholesterol, salt mixture, yeast, vitamins, antioxidants and fungal inhibitors, such as ascorbic acid, sorbic acid, formaldehyde and methyl-p-benzoate. All are incorporated into a liquid agar base which, when poured into holding pans, solidifies to form an adequate substrate upon which the insect larvae feed. Nearly any test material can be uniformly incorporated into such a diet. Thus, exposure to experimental compounds can be evaluated during all or any part of the larval stage. In addition, chronic or long-term effects in subsequent life stages can also be monitored.
The results from these studies, in which the 1,2-diphenylaziridines of Example 1 were incorporated singly into the diet of M. sexta at a concentration of 5 mM are presented in the following Table I.

[10] = test system: Blaberus discoidalis (nymphs); experiment: Topical application study, Blaberus discoidalis nymphs; assay type: in vivo; details: 1000 μg/g, approx. 500 mg, w/in 24 hr
Excerpt: as §1

Estigmene acrea (larvae) = experiment: Topical application study, Estigmene acrea larvae; assay type: in vivo; details: 1250 μg/g, approx. 800 mg, w/in 24 hr
Excerpt: as §1

mammals = details: cited from earlier work
[11] = 1500 ppm topical, 200 mg 5th instars
[12] = 5 mM in diet, all tests began with 15 larvae

**Q.** For `Fc1ccc(N2CC2c2ccccc2Cl)cc1` (centres unmarked) [Compound 13], which mortality at 5000 µg/g [1] is on record?
**A.** 50%

**Q.** What about the mortality at 125 µg/larva ([2]; Manduca sexta, topical, 125 μg/larva (100 μg/g or 100 ppm), within 24 hr) of the same compound?
**A.** 60%

**Q.** What about the “topical activity against the tobacco hornworm (comparison in words)” value ([2]; topical) of the same compound?
**A.** the greatest topical activity

**Q.** What about the “larval size and number of eggs” value ([2]; topical, 50 and 25 ppm) of the same compound?
**A.** reduced larval size and smaller number of eggs

**Q.** What about the mortality at 1000 µg/g [3] of the same compound?
**A.** 100%

**Q.** What about the “effect on larval development time, pupal weight or time to adult emergence” value (H. virescens) of the same compound?
**A.** little effect

**Q.** What about the mortality at 500 µg/g [4] of the same compound?
**A.** 100%

**Q.** What about the “time to 100% mortality” value (Musca domestica (Adult)) of the same compound?
**A.** ≤ 1.5 h

**Q.** What about the mortality at 25000 µg/g (Musca domestica (Adult); Musca domestica, topical, approx. 20 mg, 2/in 1.5 hr) of the same compound?
**A.** 100%

**Q.** What about the mortality at 666 µg/g [5] of the same compound?
**A.** 100%

**Q.** What about the “time to 100% mortality” value (Musca autumnalis (Adult)) of the same compound?
**A.** ≤ 2 h

**Q.** What about the mortality at 25000 µg/g (Musca autumnalis (Adult); Musca autumnalis, topical, approx. 20 mg, w/in 2 hr) of the same compound?
**A.** 100%

**Q.** What about the “Result” value [6] of the same compound?
**A.** No effect

**Q.** And the “mortality” value (H. virescens larvae; [11])?
**A.** failed to kill any of the larvae

**Q.** And the “symptoms” value (H. virescens larvae; [11])?
**A.** produced some of the symptoms characteristic of this group of compounds

**Q.** What about the “time to 100% mortality” value [7] of the same compound?
**A.** ≤ 1.2 h

**Q.** And the mortality at 10000 µg/g ([7]; Podisus maculiventris, topical, approx. 50 mg, w/in 1.2 hr)?
**A.** 100%

**Q.** And the mortality at 7150 µg/g [8]?
**A.** 100%

**Q.** And the “% Adult Emergence” value ([9]; 1 mM in diet)?
**A.** 100%

**Q.** What about the “% Adults” value ([9]; 1 mM in diet) of the same compound?
**A.** 100%

**Q.** What about the “% Malformed Adults” value ([9]; 1 mM in diet) of the same compound?
**A.** 7%

**Q.** And the “% Pupation” value ([9]; 1 mM in diet)?
**A.** 100%

**Q.** What about the “Days to Max Wt” value ([9]; 1 mM in diet) of the same compound?
**A.** 6.7 ± .2 days

**Q.** And the “Max Larval Wt” value ([9]; 1 mM in diet)?
**A.** 9.50 g

**Q.** And the “Mean No. of Eggs” value ([9]; 1 mM in diet)?
**A.** 71 ± 8

**Q.** What about the “No. of female Adults” value ([9]; 1 mM in diet) of the same compound?
**A.** 11

**Q.** What about the “Total No. of Adults” value ([9]; 1 mM in diet) of the same compound?
**A.** 15

**Q.** What about the “% Adult Emergence” value ([9]; 2.5 mM in diet) of the same compound?
**A.** 86%

**Q.** What about the “% Adults” value ([9]; 2.5 mM in diet) of the same compound?
**A.** 86%

**Q.** What about the “% Malformed Adults” value ([9]; 2.5 mM in diet) of the same compound?
**A.** 0%

**Q.** And the “% Pupation” value ([9]; 2.5 mM in diet)?
**A.** 100%

**Q.** What about the “Days to Max Wt” value ([9]; 2.5 mM in diet) of the same compound?
**A.** 8.7 ± 0.5 days

**Q.** And the “Max Larval Wt” value ([9]; 2.5 mM in diet)?
**A.** 8.03 g

**Q.** And the “Mean No. of Eggs” value ([9]; 2.5 mM in diet)?
**A.** 21 ± 9

**Q.** And the “No. of female Adults” value ([9]; 2.5 mM in diet)?
**A.** 9

**Q.** What about the “Total No. of Adults” value ([9]; 2.5 mM in diet) of the same compound?
**A.** 12

**Q.** And the “maximum larval weight and mean number of eggs” value ([9]; 2.5 mM in diet)?
**A.** reduced maximum larval weight and the mean number of eggs

**Q.** And the “% Adult Emergence” value ([9]; 5 mM in diet)?
**A.** 13%

**Q.** What about the “% Malformed Adults” value ([9]; 5 mM in diet) of the same compound?
**A.** 50%

**Q.** And the “% Pupation” value ([9]; 5 mM in diet)?
**A.** 13%

**Q.** And the “Days to Max Wt” value ([9]; 5 mM in diet)?
**A.** 10.0 ± 4.2 days

**Q.** And the “Max Larval Wt” value ([9]; 5 mM in diet)?
**A.** 6.13 ± .62 g

**Q.** What about the “No. of female Adults” value ([9]; 5 mM in diet) of the same compound?
**A.** 0

**Q.** What about the “larval mortality” value ([9]; 5 mM in diet) of the same compound?
**A.** all or nearly all larvae died

**Q.** What about the “weight gain of surviving larvae” value ([9]; 5 mM in diet) of the same compound?
**A.** no weight gain for 4 or more days

**Q.** And the “wrinkled or crumpled wings of moths” value ([9]; 5 mM in diet)?
**A.** observed in significant numbers of moths

**Q.** What about the “larvae dead by day two” value ([9]; 5 mM in diet, day two) of the same compound?
**A.** 60%

**Q.** And the “Total No. of Adults” value [9, 12]?
**A.** 2

**Q.** And the “oral activity” value ([9]; diet, Example 2)?
**A.** good oral activity

**Q.** What about the “larval mortality (acute toxicity)” value ([9]; in 24-72 hours, summary of Tables I and II) of the same compound?
**A.** 100%

**Q.** And the “time to 100% larval mortality” value ([9]; summary of Tables I and II)?
**A.** 24 to 72 h

**Q.** What about the mortality at 1000 µg/g [10] of the same compound?
**A.** 100%

**Q.** And the mortality at 1250 µg/g (Estigmene acrea (larvae))?
**A.** 33%

**Q.** With `Fc1ccc(N2CC2c2ccccc2F)cc1` (centres unmarked) [Compound 15] as the compound, how does the “size of surviving larvae” value ([2]; 125 μg/larvae) read?
**A.** smaller than controls

**Q.** And the mortality at 125 µg/larva ([2]; Manduca sexta, topical, 125 μg/larvae, during the entire 5th instar)?
**A.** 20%

**Q.** And the mortality at 250 µg/larva ([2]; Manduca sexta, topical, 250 μg/larva, within 24 hr)?
**A.** 100%

**Q.** And the larvae killed (H. virescens larvae; 62.5 μg/larva or 625 ppm topical, 100 mg larvae)?
**A.** 60%

**Q.** What about the larvae killed (H. virescens larvae; 312 ppm topical) of the same compound?
**A.** 40%

**Q.** What about the “% Adult Emergence” value ([9]; 5 mM in diet) of the same compound?
**A.** 60%

**Q.** What about the “% Malformed Adults” value ([9]; 5 mM in diet) of the same compound?
**A.** 0%

**Q.** And the “% Pupation” value ([9]; 5 mM in diet)?
**A.** 67%

**Q.** What about the “Days to Max Wt” value ([9]; 5 mM in diet) of the same compound?
**A.** 6.7 ± .4 days

**Q.** What about the “Max Larval Wt” value ([9]; 5 mM in diet) of the same compound?
**A.** 8.04 ± .41 g

**Q.** And the “Mean No. of Eggs” value ([9]; 5 mM in diet)?
**A.** 67 ± 42

**Q.** What about the “No. of female Adults” value ([9]; 5 mM in diet) of the same compound?
**A.** 3

**Q.** And the “Total No. of Adults” value [9, 12]?
**A.** 9

**Q.** Which “toxicity reported in the literature” value (mammals) does the source give for `CC1CN1P(=O)(N1CC1C)N1CC1C` (centres unmarked) [metepa, tris(2-methyl-1-aziridinyl)phosphine oxide] here?
**A.** carcinogenic and mutagenic properties

**Q.** Which “toxicity reported in the literature” value (mammals) does the source give for `O=P(N1CC1)(N1CC1)N1CC1` [tepa, tris(1-aziridinyl)-phosphine oxide] here?
**A.** carcinogenic and mutagenic properties
